ChEMBL document CHEMBL1909046, “DrugMatrix in vitro pharmacology data”

Molecular target: T1, Adenosine receptor A1 (Homo sapiens, UniProt P30542);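 note: radioligand binding assay at the adenosine A1 receptor, with DPCPX serving as the labelled ligand; in other assays of this panel Not Active means under 50% inhibition at 10 µM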
T1 sequence (P30542 whole entry): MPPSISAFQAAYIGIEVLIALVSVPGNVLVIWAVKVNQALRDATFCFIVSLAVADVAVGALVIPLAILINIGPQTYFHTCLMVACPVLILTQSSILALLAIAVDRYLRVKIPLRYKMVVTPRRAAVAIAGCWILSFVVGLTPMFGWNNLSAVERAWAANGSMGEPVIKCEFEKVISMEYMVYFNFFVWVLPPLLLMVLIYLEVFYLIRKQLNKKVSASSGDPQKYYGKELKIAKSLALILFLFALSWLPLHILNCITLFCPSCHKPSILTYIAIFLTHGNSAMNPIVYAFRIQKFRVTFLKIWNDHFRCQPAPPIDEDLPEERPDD
Assay type: cell membranes, CHO, Membrane
Conditions: cho

Compound | IC50
NS(=O)(=O)c1cc(C2(O)NC(=O)c3ccccc32)ccc1Cl (stereo unspecified) [CHLORTHALIDONE] | Not Active
O=C(O)CC(O)(CC(=O)O)C(=O)O [CITRIC ACID] | Not Active
CC(C)NCC(O)c1ccccc1Cl (stereo unspecified) [CLORPRENALINE] | Not Active
CN1CCN(C(c2ccccc2)c2ccccc2)CC1 [CYCLIZINE] | Not Active
CN1C[C@@H]2C[C@H]1CN2c1cc2c(cc1F)c(=O)c(C(=O)O)cn2C1CC1 [DANOFLOXACIN] | Not Active
COc1cccc2c1C(=O)c1c(O)c3c(c(O)c1C2=O)C[C@@](O)(C(C)=O)C[C@@H]3O[C@H]1C[C@H](N)[C@H](O)[C@H](C)O1 [DAUNORUBICIN] | Not Active
O=C(O)c1cc(-c2ccc(F)cc2F)ccc1O [DIFLUNISAL] | Not Active

Molecular target: 5-hydroxytryptamine receptor 2B (Homo sapiens, UniProt P41595); note: in other assays of this panel Not Active means under 50% inhibition at 10 µM
Sequence (P41595 whole entry): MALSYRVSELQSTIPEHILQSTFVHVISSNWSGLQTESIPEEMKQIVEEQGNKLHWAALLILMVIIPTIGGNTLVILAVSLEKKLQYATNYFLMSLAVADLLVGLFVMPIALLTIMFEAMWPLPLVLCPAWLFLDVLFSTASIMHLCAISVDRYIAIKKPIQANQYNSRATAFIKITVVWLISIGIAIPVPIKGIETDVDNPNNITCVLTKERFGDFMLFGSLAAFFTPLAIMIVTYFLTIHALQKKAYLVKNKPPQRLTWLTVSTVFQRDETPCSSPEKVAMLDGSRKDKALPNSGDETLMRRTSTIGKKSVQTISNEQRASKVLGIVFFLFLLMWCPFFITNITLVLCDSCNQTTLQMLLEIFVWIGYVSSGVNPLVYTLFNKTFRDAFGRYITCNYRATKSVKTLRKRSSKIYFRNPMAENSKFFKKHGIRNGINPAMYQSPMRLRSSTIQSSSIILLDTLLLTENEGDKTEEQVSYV
Assay type: cell membranes, CHO-K1, Membrane
Conditions: cho-k1

Compound | IC50
NS(=O)(=O)c1cc(C2(O)NC(=O)c3ccccc32)ccc1Cl (stereo unspecified) [CHLORTHALIDONE] | Not Active
O=C(O)CC(O)(CC(=O)O)C(=O)O [CITRIC ACID] | Not Active
CC(C)NCC(O)c1ccccc1Cl (stereo unspecified) [CLORPRENALINE] | Not Active
CN1C[C@@H]2C[C@H]1CN2c1cc2c(cc1F)c(=O)c(C(=O)O)cn2C1CC1 [DANOFLOXACIN] | Not Active
COc1cccc2c1C(=O)c1c(O)c3c(c(O)c1C2=O)C[C@@](O)(C(C)=O)C[C@@H]3O[C@H]1C[C@H](N)[C@H](O)[C@H](C)O1 [DAUNORUBICIN] | Not Active
O=C(O)c1cc(-c2ccc(F)cc2F)ccc1O [DIFLUNISAL] | Not Active

Same assay, conditions: read-out: IC50

Compound | IC50 [nM]
CN1CCN(C(c2ccccc2)c2ccccc2)CC1 [CYCLIZINE] | 373

Same assay, conditions: read-out: Ki

Compound | Ki [nM]
CN1CCN(C(c2ccccc2)c2ccccc2)CC1 [CYCLIZINE] | 238

Tested on: not listed separately
Assay: DRUGMATRIX: Calcium Channel Type L, Phenylalkylamine radioligand binding (ligand: [3H] (-)-Desmethoxyverapamil (D-888))
Assay type: cell membranes, Rattus norvegicus, Wistar, Brain, Membrane
Conditions: Not Active = under 50% inhibition at 10 µM

Compound | IC50 | Ki
NS(=O)(=O)c1cc(C2(O)NC(=O)c3ccccc32)ccc1Cl (stereo unspecified) [CHLORTHALIDONE] | Not Active | Not Active
O=C(O)CC(O)(CC(=O)O)C(=O)O [CITRIC ACID] | Not Active | Not Active
CC(C)NCC(O)c1ccccc1Cl (stereo unspecified) [CLORPRENALINE] | Not Active | Not Active
CN1C[C@@H]2C[C@H]1CN2c1cc2c(cc1F)c(=O)c(C(=O)O)cn2C1CC1 [DANOFLOXACIN] | Not Active | Not Active
COc1cccc2c1C(=O)c1c(O)c3c(c(O)c1C2=O)C[C@@](O)(C(C)=O)C[C@@H]3O[C@H]1C[C@H](N)[C@H](O)[C@H](C)O1 [DAUNORUBICIN] | Not Active | Not Active
O=C(O)c1cc(-c2ccc(F)cc2F)ccc1O [DIFLUNISAL] | Not Active | Not Active

Same assay, conditions: Not Active = under 50% inhibition at 10 µM; read-out: IC50

Compound | IC50 [nM]
CN1CCN(C(c2ccccc2)c2ccccc2)CC1 [CYCLIZINE] | 4640

Same assay, conditions: Not Active = under 50% inhibition at 10 µM; read-out: Ki

Compound | Ki [nM]
CN1CCN(C(c2ccccc2)c2ccccc2)CC1 [CYCLIZINE] | 4520

Molecular target: Cytochrome P450 2C9 (Homo sapiens, UniProt P11712); note: in other assays of this panel Not Active means under 50% inhibition at 10 µM
Sequence (P11712 whole entry): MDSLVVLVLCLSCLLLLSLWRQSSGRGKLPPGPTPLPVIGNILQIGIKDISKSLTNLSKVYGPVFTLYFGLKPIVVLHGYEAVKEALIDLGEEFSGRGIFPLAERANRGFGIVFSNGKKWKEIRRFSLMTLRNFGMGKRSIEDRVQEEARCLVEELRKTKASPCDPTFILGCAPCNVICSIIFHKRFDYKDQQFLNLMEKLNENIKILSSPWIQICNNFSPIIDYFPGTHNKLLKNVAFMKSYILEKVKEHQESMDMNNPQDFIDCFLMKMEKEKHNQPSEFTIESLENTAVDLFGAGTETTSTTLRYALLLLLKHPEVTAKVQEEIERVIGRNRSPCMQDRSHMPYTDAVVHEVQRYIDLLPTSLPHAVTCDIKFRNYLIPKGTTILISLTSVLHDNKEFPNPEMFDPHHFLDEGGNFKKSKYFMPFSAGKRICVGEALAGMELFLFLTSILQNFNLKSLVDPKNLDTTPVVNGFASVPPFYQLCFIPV
Conditions: bti-tn-5b1-4

Compound | IC50 | Ki
NS(=O)(=O)c1cc(C2(O)NC(=O)c3ccccc32)ccc1Cl (stereo unspecified) [CHLORTHALIDONE] | Not Active | Not Active
O=C(O)CC(O)(CC(=O)O)C(=O)O [CITRIC ACID] | Not Active | Not Active
CC(C)NCC(O)c1ccccc1Cl (stereo unspecified) [CLORPRENALINE] | Not Active | Not Active
CN1CCN(C(c2ccccc2)c2ccccc2)CC1 [CYCLIZINE] | Not Active | Not Active
CN1C[C@@H]2C[C@H]1CN2c1cc2c(cc1F)c(=O)c(C(=O)O)cn2C1CC1 [DANOFLOXACIN] | Not Active | Not Active
COc1cccc2c1C(=O)c1c(O)c3c(c(O)c1C2=O)C[C@@](O)(C(C)=O)C[C@@H]3O[C@H]1C[C@H](N)[C@H](O)[C@H](C)O1 [DAUNORUBICIN] | Not Active | Not Active
O=C(O)c1cc(-c2ccc(F)cc2F)ccc1O [DIFLUNISAL] | Not Active | Not Active

Tested on: not listed separately
Assay: DRUGMATRIX: Nicotinic Acetylcholine radioligand binding (ligand: [125I] Epibatidine)
Assay type: cell membranes, Membrane
Conditions: imr-32; Not Active = under 50% inhibition at 10 µM

Compound | IC50 | Ki
NS(=O)(=O)c1cc(C2(O)NC(=O)c3ccccc32)ccc1Cl (stereo unspecified) [CHLORTHALIDONE] | Not Active | Not Active
O=C(O)CC(O)(CC(=O)O)C(=O)O [CITRIC ACID] | Not Active | Not Active
CC(C)NCC(O)c1ccccc1Cl (stereo unspecified) [CLORPRENALINE] | Not Active | Not Active
CN1CCN(C(c2ccccc2)c2ccccc2)CC1 [CYCLIZINE] | Not Active | Not Active
CN1C[C@@H]2C[C@H]1CN2c1cc2c(cc1F)c(=O)c(C(=O)O)cn2C1CC1 [DANOFLOXACIN] | Not Active | Not Active
COc1cccc2c1C(=O)c1c(O)c3c(c(O)c1C2=O)C[C@@](O)(C(C)=O)C[C@@H]3O[C@H]1C[C@H](N)[C@H](O)[C@H](C)O1 [DAUNORUBICIN] | Not Active | Not Active
O=C(O)c1cc(-c2ccc(F)cc2F)ccc1O [DIFLUNISAL] | Not Active | Not Active

Tested on: not listed separately
Assay: DRUGMATRIX: Sigma2 radioligand binding (ligand: [3H] Ifenprodil)
Assay type: cell membranes, Rattus norvegicus, Wistar, Brain, Membrane
Conditions: Not Active = under 50% inhibition at 10 µM

Compound | IC50 | Ki
NS(=O)(=O)c1cc(C2(O)NC(=O)c3ccccc32)ccc1Cl (stereo unspecified) [CHLORTHALIDONE] | Not Active | Not Active
O=C(O)CC(O)(CC(=O)O)C(=O)O [CITRIC ACID] | Not Active | Not Active
CC(C)NCC(O)c1ccccc1Cl (stereo unspecified) [CLORPRENALINE] | Not Active | Not Active
CN1CCN(C(c2ccccc2)c2ccccc2)CC1 [CYCLIZINE] | Not Active | Not Active
CN1C[C@@H]2C[C@H]1CN2c1cc2c(cc1F)c(=O)c(C(=O)O)cn2C1CC1 [DANOFLOXACIN] | Not Active | Not Active
COc1cccc2c1C(=O)c1c(O)c3c(c(O)c1C2=O)C[C@@](O)(C(C)=O)C[C@@H]3O[C@H]1C[C@H](N)[C@H](O)[C@H](C)O1 [DAUNORUBICIN] | Not Active | Not Active
O=C(O)c1cc(-c2ccc(F)cc2F)ccc1O [DIFLUNISAL] | Not Active | Not Active
